The record followed here is patent publication US20200383985A1, “Inhibitors of Protease Activated Receptor-2” (Endosome Therapeutics, Inc., priority 2017, published 2020).

In one experiment the test system is PKC and ERK activity. In words: FRET assays of compartmentalized PKC and ERK in DRG neurons. Format: cell-based, rat. As to conditions: I-343 10 μM, SCH530348 100 nM. The procedure: To determine whether trypsin causes PAR2-dependent activation of PKC and ERK, which respectively mediate initial and persistent trypsin-induced hyperexcitability of nociceptors, genetically-encoded Förster Resonance Energy Transfer (FRET) biosensors were expressed in neurons. […] Trypsin (10 or 100 nM) activated PKC at the plasma membrane but not in the cytosol (FIG. 4E-G), and activated ERK in the cytosol and nucleus (FIG. 4H-J). The PAR2 antagonist I-343 (10 μM) inhibited trypsin-induced activation of PKC and ERK, whereas the PAR1 antagonist SCH530348 (100 nM) had no effect (FIG. 4F, I). At the end of experiments, neurons were challenged with the positive controls phorbol 12,13-dibutyrate (PDBu) for EKAR biosensors or PDBu plus phosphatase inhibitor mixture-2 for CKAR biosensors, to ensure that the response of the biosensor was not saturated.
DRG were collected from C57BL/6 mice and Sprague-Dawley rats (all levels). DRG were incubated with collagenase IV (2 mg/ml) and dispase II (1 mg/ml) for 30 min (mice) and 45 min (rats) at 37° C. DRG were dispersed by trituration with a fire-polished Pasteur pipette. Dissociated neurons were transfected with mPAR2-GFP (1 μg), the FRET biosensors CytoEKAR, NucEKAR, pmCKAR or CytoCKAR (all […]), or with the BRET biosensors PAR2-RLuc8 (125 ng) and βARR2-FYP (475 ng) using the Lonza 4D-Nucleofector X unit according to the manufacturer's instructions. Neurons were plated on laminin- (0.004 mg/ml) and poly-L-Lysine- (0.1 mg/ml) coated glass coverslips for confocal microscopy, on ViewPlate-96 plates (PerkinElmer) for FRET assays, or on CulturPlates (PerkinElmer) for BRET assays. Neurons were maintained in Dulbecco's modified Eagle medium (DMEM) containing 10% fetal bovine serum (FBS), antibiotic-antimitotic, and N1 supplement for 48 h before study.
Rat DRG neurons expressing FRET biosensors were serum-restricted (0.5% FBS overnight), and equilibrated in HBSS-HEPES (10 mM HEPES, pH 7.4, 30 min, 37° C.). FRET was analyzed using an Operetta CLS High-Content Imaging System (PerkinElmer) or an INCell Analyzer 2000 G E Healthcare Life Sciences). For CFP/YFP emission ratio analysis, cells were sequentially excited using a CFP filter (410-430 nm) with emission measured using YFP (520-560 nm) and CFP (460-500 nm) filters. Cells were imaged at 1 or 2 min intervals. Baseline was measured, neurons were challenged with trypsin (10 or 100 nM) or vehicle, and responses recorded for a further 30 min. Neurons were then challenged with phorbol 12,13-dibutyrate (PDBu, 200 nM, 10 min) for EKAR biosensors or PDBu (200 nM) and phosphatase inhibitor cocktail-2 (SigmaAldrich, 10 min) for CKAR biosensors. Data were analyzed using Harmony 4.1 or Image J 1.51 software. Images taken were aligned, cells were selected based on diameter, and fluorescence intensity was calculated for both FRET and CFP channels. Background intensity was subtracted and the FRET ratio was determined as the change in the FRET/donor (EKAR) or donor/FRET (CKAR) emission ratio relative to the baseline for each cell (F/Fo). Cells with >5% changes in F/F0 after PDBu stimulation were selected for analysis. Neurons were incubated with I-343 (10 μM), SCH530348 (100 nM) or vehicle (30 min, 37° C. preincubation and inclusion throughout).

The test system of another experiment is PKC and cAMP. In words: FRET assays of PKC and cAMP in HEK293 cells. The class given is cell-based. As to conditions: HEK293 cells. How it is done: I-343, but not SCH530348, inhibited trypsin stimulation of PKC and cAMP, which thus depend on PAR2 (FIGS. 19G and H). […] The sustained plasma membrane cAMP response to trypsin support the existence of mechanisms that allow persistent PAR2 signaling, which warrant further investigation.
HEK293 cells were cultured in DMEM supplemented with 10% (v/v) FBS (5% CO2, 37° C.). When necessary serum restriction was achieved by replacing culture medium with DMEM containing 0.5% FBS overnight. Cells were transiently transfected using polyethylenimine (PEI) (1:6 DNA:PEI).
HEK293 cells were transiently transfected in 10 cm dishes (˜50% confluency) with Flag-PAR2-HA (2.5 μg) and FRET biosensors CytoEKAR or NucEKAR (2.5 μg) (Jensen, D. D. et al., Sci Transl Med. 2017, 9(392), eaal3447; Thomsen, A. R. B., et al., Cell 2016, 166(4): 907-919). In experiments examining the role of dynamin, cells were transfected with FLAG-PAR2-HA (1.25 μg), FRET biosensor (1.25 μg) and either DynWT-HA, DynK44E-HA or pcDNA3.1 (2.5 μg). At 24 h after transfection, cells were seeded on ViewPlate-96 well plates (PerkinElmer). FRET was assessed 72 h post-transfection, following overnight serum restriction. Cells were equilibrated in HBSS-HEPES (30 min, 37° C.). FRET was measured using a PHERAstar FSX Microplate Reader (BMG LabTech). For CFP/YFP emission ratio analysis, cells were sequentially excited using a CFP filter (425/10 nm) with emission measured using YFP (550/50 nm) and CFP (490/20 nm) filters. FRET was measured before and after stimulation with trypsin (10 nM), NE (100 nM), CS (100 nM), phorbol 12,13-dibutyrate, PDBu (positive control, 1 μM), or vehicle. FRET ratios (donor/acceptor intensity for EKAR, or acceptor/donor intensity for CKAR and Epac) were calculated and corrected to baseline and vehicle treatments to determine ligand-induced FRET (ΔFRET). Treatment effects were determined by comparison of area under the curve values. Signalling inhibitors were dissolved in HBSS-HEPES. PS2 and PS2 inact were dissolved in HBSS-HEPES+1% DMSO. […]

`CCOC(=O)N[C@@H]1CC[C@@H]2[C@@H](C1)C[C@H]1C(=O)O[C@H](C)[C@H]1[C@H]2/C=C/c1ccc(-c2cccc(F)c2)cn1` [SCH530348]: the “trypsin-induced activation of PKC and ERK” value with PKC and ERK activity is “no effect”. Also, the “trypsin stimulation of PKC and cAMP” value with PKC and cAMP is “not”.
